Each block holds one compound with its values, some of them ahead of it.
Legend:
[1] = Decomposition point (commencement of decomposition) of 2,5,8,11-tetraoxatridecan-13-oates; format: physicochemical
Description: (§1) Melting and decomposition points (commencement of decomposition) and viscosities of various 2,5,8,11-tetraoxatridecan-13-oates.

[2] = Viscosity of the ionic liquids at 25° C.; format: physicochemical
Experimental: (§2) The viscosity at 25° C. at a low shear rate is in the order of one million millipascal seconds.
as §1
^1All liquids examined behaved as Newtonian fluids

[3] = Solubility experiments: salts and olive oil dissolved in TEGMECH2COONa; format: physicochemical
Experimental: Solubility experiments were carried out using the sodium 2,5,8,11-tetraoxatridecan-13-oate synthesized as described in example 1.
The solubility of olive oil in a concentration of up to 10% by weight in TEGMECH2COONa is particularly worthy of mention with regard to the environmental compatibility of the sodium salt.

[4] = Miscibility of the ionic liquid with water and organic solvents; format: physicochemical
Experimental: as §2
(§3) Owing to the amphiphilic and thus solubilizing properties, the ionic liquid of example 6 has a wider solvent spectrum than conventional ionic liquids. Furthermore, it can be concluded that the ionic liquid of example 6 has structuring properties in water, organic solvents and in particular also in the pure state. Accordingly, it can serve, for example, as template in the mineralization processes (e.g. for mesoporous silicates). Furthermore, the ionic liquid of example 6 is liquid at room temperature (for melting point, see Table 1).

[5] = Electrical conductivity, fluorescence and surface tension measurements in aqueous solution; format: physicochemical; conditions: concluded from conductivity and fluorescence or surface tension measurements in aqueous medium
Description: as §3

Compound: COCCOCCOCCOCC(=O)[O-].[Na+] [Example 1, sodium 2,5,8,11-tetraoxatridecan-13-oate]
Decomposition point [1]: 384 °C
Viscosity ([2]; at 25° C.): 1.64 · 10^5 mPa · s
Viscosity ([2]; at 25° C. at a low shear rate, order of magnitude): one million
Solubility of magnesium sulfate in the ionic liquid ([3]; 120° C.): appreciably soluble
Solubility of ammonium nitrate in the ionic liquid ([3]; room temperature): readily soluble
Solubility of NaCl in the ionic liquid ([3]; temperatures above 100° C.): dissolves in low concentrations
Miscibility with acetone ([4]; acetone): miscible in any ratio
Miscibility with dichloromethane ([4]; dichloromethane): miscible in any ratio
Miscibility with diethyl ether ([4]; diethyl ether): partially miscible
Miscibility with pentanol ([4]; pentanol): miscible in any ratio
Miscibility with water [4]: miscible in any ratio

Compound: COCCOCCOCCOCC(=O)[O-].[K+] [Example 3, potassium 2,5,8,11-tetraoxatridecan-13-oate]
Decomposition point [1]: 369 °C
melting point: 59.1 °C

Compound: COCCOCCOCCOCC(=O)O [Example 5, hexylammonium 2,5,8,11-tetraoxatridecan-13-oate]
Viscosity ([2]; at 25° C.): 2.40 · 10^2 mPa · s
Viscosity ([2]; order of magnitude): ~20 000 mPas
Character in aqueous solution [5]: hydrotropic character

Compound: CCCCCCCCN.COCCOCCOCCOCC(=O)O [Example 7]
Decomposition point [1]: 145 °C
Viscosity ([2]; at 25° C.): 3.75 · 10^2 mPa · s

Compound: CCCCCCCCCCN.COCCOCCOCCOCC(=O)O [Example 8]
Decomposition point [1]: 156 °C
Viscosity ([2]; at 25° C.): 4.00 · 10^2 mPa · s

Decomposition point [1]: 320 °C
Compound: calcium di(2,5,8,11-tetraoxatridecan-13-oate) [Example 4]

Compound: dodecylammonium 2,5,8,11-tetraoxatridecan-13-oate [Example 6]
Decomposition point [1]: 165 °C
Viscosity ([2]; at 25° C.): 4.67 · 10^2 mPa · s
Miscibility with water [4]: mixes with water in any ratio
Character in aqueous solution [5]: surfactant character

— patent US8461382B2, “Ionic liquids” (BASF SE, priority 2007, dated 2013)
